# Experiments:
# [1] = test system: Staphylococcus aureus (S. aureus) 11540 strain; assay: Standard microdilution assay, MIC against S. aureus 11540; type: cell-based; conditions: S. aureus 11540 strain, standard microdilution assay, cutoff 16 micrograms/mL, read-out: MIC S. aureus
# Description: The in vitro activity of the compounds of the present invention can be determined. Antimicrobial testing is typically performed to determine the minimum inhibitory concentration (MIC). Minimum inhibitory concentrations (MICs) are determined by the microdilution method in a final volume of 100 μl according to protocols outlined by The Clinical and Laboratory Standards Institute (CLSI). Performance standards for reference strains are assessed within the same experimental design to maintain quality control. See, for example, Clinical Laboratory Standards Institute: Methods for dilution antimicrobial susceptibility tests for bacteria that grow aerobically M7-A8. Approved Standard-Eighth Edition. Wayne, Pa.: CLSI; December 2008; and Clinical Laboratory Standards Institute: Performance Standards for Antimicrobial Susceptibility Testing M100-S20; Approved Standard-Twentieth Edition. Wayne, Pa.: CLSI; June 2010.
# The compounds of the present invention were tested for antimicrobial activity. The Compounds 1-582 were run against Eschericia coli (E. coli) strain ATCC25922 and Compounds 320-582 were run against Staphylococcus aureus (S. aureus) 11540 strain using a standard microdilution assay to determine minimum inhibitory concentrations (MICs). […] It will be recognized by one skilled in the art that the compounds can be assessed against other bacterial organisms and that the presentation of data for activity against Eschericia coli and Staphylococcus aureus are illustrative and in no way is intended to limit the scope of the present invention. The compounds of the present invention can be assayed against a range of other microorganisms depending upon the performance activity desired to be gathered. Furthermore, the “+” and “−” representation and the selection of a cutoff value of 16 micrograms/mL is also illustrative and in no way is intended to limit the scope of the present invention.
# [2] = test system: Eschericia coli (E. coli) strain ATCC25922; assay: Standard microdilution assay, MIC against E. coli ATCC25922; type: cell-based; conditions: Escherichia coli; E. coli strain ATCC25922, standard microdilution assay; cutoff 16 micrograms/mL; read-out: MIC E. Coli
# Outline: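 MIC determined by broth microdilution following CLSI protocols, with reference strains run in parallel for quality control. Activity scored +/− at a cutoff of 16 micrograms/mL.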
Compound,MIC [1],MIC [2]
NCC[C@@H]1CCC[C@@H](c2ccc(-n3cc4cc(-c5cc(CCC[C@@H](N)CO)cc(Cl)c5F)[nH]c4nc3=O)cc2)N1 [Compound 483],< 16 µg/mL,< 16 µg/mL
COC(=O)[C@H](CCNC(=N)N)N[C@@H](C)c1ccc(-n2cc3cc(-c4cc(CCC[C@H](C)N)cc(OC(F)(F)F)c4F)[nH]c3nc2=O)cc1 [Compound 362],< 16 µg/mL,< 16 µg/mL
C[C@H](N)CCCc1cc(Cl)c(F)c(-c2cc3cn(-c4ccc([C@H](C)NCC[C@@H](CSc5nccs5)NC(=N)N)cc4)c(=O)nc3[nH]2)c1 [Compound 365],< 16 µg/mL,< 16 µg/mL
C[C@H](N)CCCc1cc(Cl)c(F)c(-c2cc3cn(-c4ccc([C@@H]5CCC[C@@H](CCn6ncoc6=O)N5)cc4)c(=O)nc3[nH]2)c1 [Compound 545],> 16 µg/mL,> 16 µg/mL
C[C@H](N)CCCc1cc(OC(F)(F)F)c(F)c(-c2cc3cn(-c4ccc(CN[C@H](C)C[C@H](CCO)NC(=N)N)cc4)c(=O)nc3[nH]2)c1 [Compound 396],< 16 µg/mL,< 16 µg/mL
CC[C@H](NCCCNC(=N)N)c1ccc(-n2cc3cc(-c4cc(CCC[C@@H](N)CO)cc(Cl)c4F)[nH]c3nc2=O)cc1 [Compound 432],< 16 µg/mL,< 16 µg/mL
C[C@H](N)CCCc1cc(OC(F)(F)F)c(F)c(-c2cc3cn(-c4ccc([C@H](C)NCC[C@H](CC#N)NC(=N)N)cc4)c(=O)nc3[nH]2)c1 [Compound 333],< 16 µg/mL,< 16 µg/mL
C[C@H](N)CCCc1cc(OC(F)(F)F)c(F)c(-c2cc3cn(-c4ccc(CN5CC[C@H](CN6CCOCC6)NC5=N)cc4)c(=O)nc3[nH]2)c1 [Compound 419],< 16 µg/mL,< 16 µg/mL
C[C@H](N)CCCc1cc(Cl)c(F)c(-c2cc3cn(-c4ccc([C@@H]5CCC[C@@H](CCNC(=N)N)N5)cc4)c(=O)nc3[nH]2)c1 [Compound 420],< 16 µg/mL,< 16 µg/mL
C[C@H](N)CCCc1cc(OC(F)(F)F)c(F)c(-c2cc3cn(-c4ccc([C@@H]5CC(CCNC(=N)N)CN5)cc4)c(=O)nc3[nH]2)c1 (some centres unmarked) [Compound 408],< 16 µg/mL,< 16 µg/mL
C[C@H](N)CCCc1cc(Cl)c(F)c(-c2cc3cn(-c4ccc([C@@H]5CCO[C@@H](CCNC(=N)N)C5)cc4)c(=O)nc3[nH]2)c1 [Compound 526],< 16 µg/mL,< 16 µg/mL
C[C@H](N)CCCc1cc(Cl)c(F)c(-c2cc3cn(-c4ccc(C5(CCNC(=N)N)CNC5)cc4)c(=O)nc3[nH]2)c1 [Compound 434],< 16 µg/mL,< 16 µg/mL
C[C@H](N)CCCc1cc(Cl)c(F)c(-c2cc3cn(-c4ccc([C@@H]5CCC[C@@H](CCn6cccn6)N5)cc4)c(=O)nc3[nH]2)c1 [Compound 530],> 16 µg/mL,> 16 µg/mL
C[C@H](N)CCCc1cc(Cl)c(F)c(-c2cc3cn(-c4ccc([C@H](C)N[C@H](CO)CCNC(=N)N)cc4)c(=O)nc3[nH]2)c1 [Compound 367],< 16 µg/mL,< 16 µg/mL
C[C@H](N)CCCc1cc(OC(F)(F)F)c(F)c(-c2cc3cn(-c4ccc([C@@H](N)CCCN)cc4)c(=O)nc3[nH]2)c1 [Compound 411],< 16 µg/mL,< 16 µg/mL
C[C@H](N)CCCc1cc(OC(F)(F)F)c(F)c(-c2cc3cn(-c4ccc(CNCC[C@H](CN5CCOCC5)NC(=N)N)cc4)c(=O)nc3[nH]2)c1 [Compound 328],< 16 µg/mL,< 16 µg/mL
C=C[C@@H](C[C@H](C)NCc1ccc(-n2cc3cc(-c4cc(CCC[C@H](C)N)cc(OC(F)(F)F)c4F)[nH]c3nc2=O)cc1)NC(=N)N [Compound 337],< 16 µg/mL,< 16 µg/mL
C[C@H](N)CCCc1cc(Cl)c(F)c(-c2cc3cn(-c4ccc([C@@H]5COC[C@@H](CCNC(=N)N)N5)cc4)c(=O)nc3[nH]2)c1 [Compound 353],< 16 µg/mL,< 16 µg/mL
N=C(NC1CCCC1)c1ccc(-n2cc3cc(-c4ccc(S(=O)(=O)NC5CCNCC5)cc4)[nH]c3nc2=O)cc1 [Compound 504],> 16 µg/mL,> 16 µg/mL
C[C@H](N)CCCc1cc(Cl)c(F)c(-c2cc3cn(-c4ccc(CN[C@@H](C)C[C@H](CO)NC(=N)N)cc4)c(=O)nc3[nH]2)c1 [Compound 437],< 16 µg/mL,< 16 µg/mL
C[C@H](N)CCCc1cc(Cl)c(F)c(-c2cc3cn(-c4ccc([C@@H]5CCC[C@@H](CCc6nccs6)N5)cc4)c(=O)nc3[nH]2)c1 [Compound 546],< 16 µg/mL,> 16 µg/mL
C[C@H](N)CCCc1cc(OC(F)(F)F)c(F)c(-c2cc3cn(-c4ccc(C(O)[C@@H]5C[C@@H](NC(=N)N)CN5)cc4)c(=O)nc3[nH]2)c1 (some centres unmarked) [Compound 448],< 16 µg/mL,< 16 µg/mL

Compound,MIC [1],MIC [2]
C[C@H](N)CCCc1cc(Cl)c(F)c(-c2cc3cn(-c4ccc([C@H]5COC[C@@H](c6c[nH]nn6)N5)cc4)c(=O)nc3[nH]2)c1 [Compound 391],> 16 µg/mL,> 16 µg/mL
C[C@H](N)CCCc1cc(OC(F)(F)F)c(F)c(-c2cc3cn(-c4ccc([C@@H](N)CCN)cc4)c(=O)nc3[nH]2)c1 [Compound 426],< 16 µg/mL,< 16 µg/mL
C[C@H](N)CCCc1cc(Cl)c(F)c(-c2cc3cn(-c4ccc([C@H](N)CCN)cc4)c(=O)nc3[nH]2)c1 [Compound 440],< 16 µg/mL,< 16 µg/mL
C[C@H](N)CCCc1cc(Cl)c(F)c(-c2cc3cn(-c4ccc([C@@H]5CCC[C@@H](CCNC(N)=O)N5)cc4)c(=O)nc3[nH]2)c1 [Compound 510],> 16 µg/mL,> 16 µg/mL
COC[C@H](CCNC(=N)N)N[C@@H](C)c1ccc(-n2cc3cc(-c4cc(CCC[C@H](C)N)cc(Cl)c4F)[nH]c3nc2=O)cc1 [Compound 355],< 16 µg/mL,< 16 µg/mL
COC[C@H](CCN[C@@H](C)c1ccc(-n2cc3cc(-c4cc(CCC[C@H](C)N)cc(Cl)c4F)[nH]c3nc2=O)cc1)NC(=N)N [Compound 345],< 16 µg/mL,< 16 µg/mL
C[C@H](NCCCNC(=N)N)c1ccc(-n2cc3cc(-c4cc(CCC[C@H](N)CO)cc(Cl)c4F)[nH]c3nc2=O)cc1 [Compound 476],< 16 µg/mL,< 16 µg/mL
C[C@H](N)CCCc1cc(Cl)c(F)c(-c2cc3cn(-c4ccc([C@@H]5COC[C@@H](CO)N5)cc4)c(=O)nc3[nH]2)c1 [Compound 452],> 16 µg/mL,> 16 µg/mL
C[C@H](N)CCCc1cc(Cl)c(F)c(-c2cc3cn(-c4ccc(CN[C@H](CCNC(=N)N)CCc5nccs5)cc4)c(=O)nc3[nH]2)c1 [Compound 528],< 16 µg/mL,< 16 µg/mL
C[C@H](N)CC[C@H](N)c1cc(Cl)c(F)c(-c2cc3cn(-c4ccc([C@H](C)NCCCNC(=N)N)cc4)c(=O)nc3[nH]2)c1 [Compound 342],< 16 µg/mL,< 16 µg/mL
C[C@H](N)CCCc1cc(Cl)c(F)c(-c2cc3cn(-c4ccc([C@@H]5CC(CCN)CN5)cc4)c(=O)nc3[nH]2)c1 (some centres unmarked) [Compound 406],< 16 µg/mL,< 16 µg/mL
C[C@H](N)CCCc1cc(Cl)c(F)c(-c2cc3cn(-c4ccc([C@@H]5COC[C@@H](CN)N5)cc4)c(=O)nc3[nH]2)c1 [Compound 464],< 16 µg/mL,< 16 µg/mL
C[C@H](N)CCCc1cc(Cl)c(F)c(-c2cc3cn(-c4ccc(CNCC[C@H](CN5CCOCC5)NC(=N)N)cc4)c(=O)nc3[nH]2)c1 [Compound 322],< 16 µg/mL,< 16 µg/mL
C[C@H](N)CCCc1cc(Cl)c(F)c(-c2cc3cn(-c4ccc(CN5CC[C@H](CN6CCOCC6)NC5=N)cc4)c(=O)nc3[nH]2)c1 [Compound 418],< 16 µg/mL,< 16 µg/mL
C[C@H](NCCCNC(=N)N)c1ccc(-n2cc3cc(-c4cc([C@@H]5CC[C@H](C)N5)cc(Cl)c4F)[nH]c3nc2=O)cc1 [Compound 343],< 16 µg/mL,< 16 µg/mL
C[C@H](N)CCCc1cc(Cl)c(F)c(-c2cc3cn(-c4ccc([C@@H]5CCC[C@@H](CCc6c[nH]nn6)N5)cc4)c(=O)nc3[nH]2)c1 [Compound 543],> 16 µg/mL,> 16 µg/mL
C[C@H](N)CCCc1cc(Cl)c(F)c(-c2cc3cn(-c4ccc([C@H]5COC[C@@H](CNC(=N)N)N5)cc4)c(=O)nc3[nH]2)c1 [Compound 451],< 16 µg/mL,< 16 µg/mL
C[C@@H](N)CCCc1cc(Cl)c(F)c(-c2cc3cn(-c4ccc([C@@H](C)NCCCNC(=N)N)cc4)c(=O)nc3[nH]2)c1 [Compound 370],< 16 µg/mL,< 16 µg/mL
C[C@H](N)CCCc1cc(Cl)c(F)c(-c2cc3cn(-c4ccc([C@@H](N)CCCN)cc4)c(=O)nc3[nH]2)c1 [Compound 410],< 16 µg/mL,< 16 µg/mL
C[C@H](N)CCCc1cc(Cl)c(F)c(-c2cc3cn(-c4ccc([C@H](C)NCC[C@@H](CNC(=O)CN)NC(=N)N)cc4)c(=O)nc3[nH]2)c1 [Compound 422],< 16 µg/mL,< 16 µg/mL
C[C@H](N)CCCc1cc(Cl)c(F)c(-c2cc3cn(-c4ccc(C(=N)N)cc4)c(=O)nc3[nH]2)c1 [Compound 566],< 16 µg/mL,> 16 µg/mL

# Source: patent US10815238B2, “Antimicrobial compounds and methods of making and using the same” (BIOVERSYS AG, priority 2013, dated 2020)
